“Also recorded” adds a separate entry of the source. Where two headings read alike, the source gives them in different places.
Tests used:
[1] = tested on: Ub Ser65 phosphorylation; experiment: Phospho-Ub (Ub Ser65) immunoblotting in parkin- or YFP-parkin-transfected HeLa cells; assay type: cell-based; conditions: immunoblot; for ubiquitin phosphorylation, niclosamide or CCCP only (controls): YFP-parkin HeLa cells, 10 μM, 1 h; for phosphorylation of Ub at Ser65, niclosamide or CCCP treatment alone (controls): 10 μM CCCP 3 h
Method: (§1) Both HeLa and parkin-overexpressed HeLa cells were maintained in DMEM high glucose (Gibco), 10% FBS (Sigma-Aldrich) at 37° C. with 5% CO2. For experiments, cells were counted and seeded into a range of culture plates, depending on the experiment, cell counting was done using the Cellometer Auto T4 with TrypanBlue (Gibco). […] Alternatively, HeLa cells were seeded in well plates and then transfected with […] of parkin cDNA using the PEI method once the plated cells reached 60% confluency. After 6 hours, the media was changed. Sub-culturing was done when the cells reached ˜90% confluency.
(§2) Cell culture with 70-80% confluency was lysed as follows: cells were washed with Phosphate Buffer Saline (PBS) (Sigma). 150 μl of lysis buffer was used on each well containing either: • 50 mM Tris-HCl pH 7.5, 1 mM EDTA, 1 mM EGTA, 0.27 M sucrose, 1 mM Na3VO4, 50 mM NaF, 5 mM Na pyrophosphate and fresh 1 mM benzamidine, 1% NP-40 and […]; or • 50 mM Tris-HCl pH 7.5, 1 mM EDTA, 1 mM EGTA, 10 mM Na β-glycerophosphate, 0.27 M sucrose, 1 mM Na3VO4, 50 mM NaF, 10 mM Na pyrophosphate with fresh 1 mM benzamidine, 1% Triton X-100, complete EDTA-free Protease Inhibitor, Phosphatase inhibitor cocktail 3 and 100 μM of 2-chloroacetamide.
(§3) The cells were scrapped and transferred to the microtube and eventually spun down at 12,000 rpm for 15 minutes at 4° C. Finally, the supernatant was transferred to the new microtubes and stored at −20° C. Protein concentration was measured using Bradford Assay. Serial concentrations 0.125; 0.25; 0.5 and 1 mg/ml of Bovine Serum Albumin (BSA) (Sigma Aldrich) were used as a standard. Samples were boiled at 90° C. for 5 minutes in SDS sample loading buffer.
The next day membranes were washed in TBST and incubated with horse radish peroxidase (HRP)-conjugated antibodies for 1 h at room temperature with agitation. Following TBST washes, proteins were visualised using Amersham™ ECL™ Prime kit (GE Biosciences) and imaged using the Bio-rad ChemicDoc. Primary antibodies used for western blotting; GAPDH (Abcam cat #ab9485), Phospho-Ub Ser 65 (Sigma-Aldrich cat #ABS1513-1), LC3B (Cell Signaling cat #3868S). Secondary antibodies used for western blotting; anti-rabbit HRP (Agilent Dako cat #P0399), anti-mouse HRP (Agilent Dako cat #P0260).
(§4) To explore this, we first treated parkin-transfected HeLa cells for 24 h with 50 μM kinetin, kinetin riboside or kinetin riboside ProTide, a monophosphate prodrug of kinetin riboside.

[2] = tested on: ubiquitin Ser65 phosphorylation; experiment: Ubiquitin Ser65 phosphorylation in astrocytes with or without valinomycin; assay type: cell-based; conditions: for ubiquitin Ser65 phosphorylation after pre-treatment followed by valinomycin, compared to valinomycin alone: 50 μM 24 h, 50 nM valinomycin for 5 h; for ubiquitin Ser65 phosphorylation, compound alone: 50 μM, 24 h
Method: Briefly, astrocytes were treated with 50 μM of the nucleobase kinetin, nucleosides 9a and 9c or DMSO for 24 h and 5 h prior to lysis, the samples were treated with 50 nM valinomycin, a mitochondrial uncoupler.

[3] = target: T1, PINK1 (Homo sapiens, UniProt Q9BXM7); conditions: in presence of the de-polarizing agent CCCP; cited from earlier work
T1 construct: HeLa cells, which express PINK1 endogenously; endogenous in cells; host or cells: HeLa cells transiently transfected with parkin
T1 sequence (Q9BXM7 78-581): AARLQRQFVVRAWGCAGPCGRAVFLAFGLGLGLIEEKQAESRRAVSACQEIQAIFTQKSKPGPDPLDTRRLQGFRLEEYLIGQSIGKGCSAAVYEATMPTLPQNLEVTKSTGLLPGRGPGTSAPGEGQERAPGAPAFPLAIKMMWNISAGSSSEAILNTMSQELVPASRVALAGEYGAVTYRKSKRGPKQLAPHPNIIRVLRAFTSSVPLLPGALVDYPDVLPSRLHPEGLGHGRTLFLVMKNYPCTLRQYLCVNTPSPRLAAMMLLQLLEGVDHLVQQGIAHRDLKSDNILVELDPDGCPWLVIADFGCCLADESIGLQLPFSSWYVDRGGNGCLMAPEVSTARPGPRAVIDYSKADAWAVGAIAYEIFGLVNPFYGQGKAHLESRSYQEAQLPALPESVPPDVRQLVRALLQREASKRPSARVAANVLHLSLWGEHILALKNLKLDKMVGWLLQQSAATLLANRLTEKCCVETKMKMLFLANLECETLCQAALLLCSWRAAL

[4] = tested on: OPA1; experiment: OPA1 cleavage immunoblot (mitochondrial membrane depolarization) in parkin-transfected HeLa cells; assay type: cell-based; conditions: 10 μM CCCP 3 h
Method: as §1, §2, §3, §4

[5] = tested on: Ub Ser65 phosphorylation; experiment: Immunofluorescence for Ub Ser65 phosphorylation in YFP-parkin transfected HeLa cells; assay type: cell-based
Method: (§5) Cells were seeded on PerkinElmer PhenoPlate 96-well plates, followed by treatment with compounds. Cells were fixed in chilled 4% PFA for 10 min followed by washes in PBS. […] Following PBS washes, cells were blocked using blocking buffer (PBS, 5% BSA, 0.1% Tween20) for 1 h at room temperature. Primary antibodies were diluted in blocking buffer and added to cells to be incubated overnight at 4° C. Cells were subsequently washed with PBS-T and the appropriate secondary antibodies (diluted in blocking buffer) were added for 2 h at room temperature in darkness. 10 μg/ml of Hoechst 33258 stain was added with secondary antibodies when required. Cells were again washed with PBS-T followed by addition of PBS with 0.02% sodium azide. Cells were then stored at 4° C. until ready for imaging. Primary antibodies used for immunofluorescence are as follows: Phospho-Ub Ser 65 (Sigma-Aldrich cat #ABS1513-1), TOM20 (Santa-Cruz cat #sc-17764). Secondary antibodies and stains used in immunofluorescence; Anti-IgG2a Alexa Fluor™ 546 (ThermoFisher cat #A21133) Anti-rabbit Alexa Fluor™ 647 (ThermoFisher cat #A21244), Hoechst 33258 stain (Sigma-Aldrich cat #B2883).
(§6) Confocal microscopy was performed using a Zeiss LSM800 w/Airyscan fluorescent microscope equipped with lasers emitting at 405 nm, 488 nm, 561 nm and 640 nm. All images were captured using a 40x oil immersion objective lens and processed using Zeiss ZEN software. Images were analysed and quantified using Columbus (PerkinElmer) and TIBCO Spotfire software.
(§7) First, HeLa cells transfected with YFP-parkin were either left untreated or treated with 50 μM kinetin riboside, nucleosides 9a and 9c for 24 h.

[6] = tested on: HeLa cells transfected with YFP-parkin; experiment: TMRM fluorescence (mitochondrial membrane potential); assay type: cell-based
Method: For assessing tetramethylrhodamine methyl ester perchlorate (TMRM) fluorescence, cell media was removed and replaced with cell media consisting of 5 nM TMRM (ThermoFisher) and 10 μg/ml Hoechst 33258 stain for 30 mins in the dark at 37° C. to allow incorporation of TMRM into mitochondria. Following PBS washes, FluoroBrite DMEM (Gibco) media was added to cells, followed by subsequent imaging using a Zeiss LSM800 microscope at 37° C. with 5% CO2.

[7] = tested on: HeLa cells transfected with YFP-parkin; experiment: Immunofluorescence for YFP-parkin localisation and TOM20 (mitochondrial fragmentation); assay type: cell-based
Method: as §5, §6, §7

[8] = tested on: immortalised MEF expressing PINK1 wild-type (WT); experiment: MitoQC mitophagy assay, MEF expressing PINK1 wild-type; assay type: cell-based; conditions: 20 μM CCCP, 24 h
Text: (§8) With the inhibition of ubiquitin phosphorylation and parkin localisation to the mitochondria by kinetin riboside and the nucleoside analogue 9c, we next asked whether these compounds still induce mitophagy in a PINK1 dependent manner. To explore this, we employed the established MitoQC assay for measuring mitophagy in cells^11,12.

[9] = tested on: PINK1 KO MEFs; experiment: MitoQC mitophagy assay, PINK1 knock-out MEF; assay type: cell-based; conditions: 20 μM CCCP, 24 h
Text: as §8

[10] = target: T1, PINK1; experiment: PINK1 activation in cells judged by parkin Ser65 phosphorylation (parkin-transfected HeLa cells); assay type: cell-based; conditions: 50 μM, 1 h
Method: as §1, §2, §3

[11] = 50 μM, 24 h, no niclosamide or CCCP

c1coc(CNc2ncnc3[nH]cnc23)c1 [kinetin, reference compound]
inhibition of CCCP-induced phosphorylation of ubiquitin by pre-treatment ([1]; parkin-transfected HeLa cells, 50 μM 24 h, then 10 μM CCCP 3 h): did not | phosphorylation of ubiquitin (Ub Ser65), compound alone ([1]; parkin-transfected HeLa cells, 50 μM, 24 h, no CCCP): did not lead to any notable phosphorylation of ubiquitin | ubiquitin Ser65 phosphorylation after pre-treatment followed by valinomycin, compared to valinomycin alone [2]: significant suppression of ubiquitin Ser65 phosphorylation | ubiquitin Ser65 phosphorylation, compound alone [2]: increased phosphorylation | PINK1 activation in cells exposed to CCCP [3]: enhanced PINK1 activation

O=C(Nc1ccc([N+](=O)[O-])cc1Cl)c1cc(Cl)ccc1O [niclosamide, reference compound]
ubiquitin phosphorylation, niclosamide or CCCP only (controls) [1]: induced strong ubiquitin phosphorylation | phosphorylation of Ub at Ser65, niclosamide or CCCP treatment alone (controls) ([1]; parkin-transfected HeLa cells): strong phosphorylation of Ub at Ser65 | OPA1 cleavage (mitochondrial membrane depolarization), niclosamide or CCCP alone [4]: led to OPA1 cleavage | phosphorylation of ubiquitin, niclosamide or CCCP alone ([5]; YFP-parkin HeLa cells, 10 μM, 1 h, immunofluorescence): induced significant phosphorylation of ubiquitin | mitochondrial membrane potential, niclosamide or CCCP ([6]; 10 μM, data not shown): membrane potential collapse

carbonyl cyanide m-chlorophenyl-hydrazine [CCCP, reference compound]
ubiquitin phosphorylation, niclosamide or CCCP only (controls) [1]: induced strong ubiquitin phosphorylation | phosphorylation of Ub at Ser65, niclosamide or CCCP treatment alone (controls) ([1]; parkin-transfected HeLa cells): strong phosphorylation of Ub at Ser65 | OPA1 cleavage (mitochondrial membrane depolarization), niclosamide or CCCP alone [4]: led to OPA1 cleavage; also recorded: associated with cleavage of OPA1 | phosphorylation of ubiquitin, niclosamide or CCCP alone [5]: induced significant phosphorylation of ubiquitin; also recorded: induced strong ubiquitin phosphorylation | parkin localisation to the mitochondria, CCCP treatment alone ([7]; 10 μM CCCP): promoted parkin localisation to the mitochondria | mitochondrial membrane potential, niclosamide or CCCP [6]: membrane potential collapse | mitophagy in PINK1 WT MEFs, CCCP [8]: induced an increase in mitophagy | mitophagy in PINK1 KO MEFs, CCCP [9]: not in PINK1 KO MEFs

CC(C)(C)CNc1ncnc2c1ncn2[C@@H]1O[C@H](CO)[C@@H](O)[C@H]1O [9f, (2R3S,4R,5R)-2-(hydroxymethyl)-5-(6-(neopentylamino)-9K-purin-9-yl)tetrahydrofuran-3,4-diol]
activation of PINK1 as judged by parkin Ser65 phosphorylation [10]: exhibited pronounced activation of PINK1 apart from compound 9f

CNc1ncnc2c1ncn2[C@@H]1O[C@H](CO)[C@@H](O)[C@H]1O [9a, (2R,3S,4R,5R)-2-(hydroxymethyl)-5-(6-(methylamino)-9H-purin-9-yl)tetrahydrofuran-3,4-diol]
ubiquitin Ser65 phosphorylation after pre-treatment followed by CCCP, compared to CCCP alone ([5]; 50 μM 24 h, then 10 μM CCCP, immunofluorescence): did not have a significant impact | impact on ubiquitin phosphorylation, compound alone ([5]; 50 μM, 24 h, no niclosamide or CCCP, immunofluorescence): did not have any impact | parkin localisation to the mitochondria after pre-treatment followed by CCCP, compared to CCCP alone ([7]; 50 μM 24 h, then 10 μM CCCP): did not have a significant impact | impact on mitochondrial fragmentation (TOM20), compound alone [7, 11]: did not have any impact | impact on parkin localisation, compound alone [7, 11]: did not have any impact | ubiquitin Ser65 phosphorylation after pre-treatment followed by valinomycin, compared to valinomycin alone [2]: significant suppression of ubiquitin Ser65 phosphorylation | ubiquitin Ser65 phosphorylation, compound alone [2]: increased phosphorylation

Reference: patent publication US20260014184A1, “ADENOSINE DERIVATIVES FOR USE IN THE TREATMENT OF NEURODEGENERATIVE DISORDERS AND CANCER” (UNIVERSITY COLLEGE CARDIFF CONSULTANTS LIMITED, priority 2022, published 2026)
